Test results reported in patent publication US8299252B2, “Pyrazolopyridine and pyrrolopyridine multikinase inhibitors” (Chugai Seiyaku Kabushiki Kaisha, priority 2005, dated 2012).
pIC50: −log10 of the molar value. In brackets after ≈: the same amount, converted by molar mass.

How the values were obtained:
[1] = Solubility in fasted state simulated intestinal fluid; assay type: physicochemical; details: pH 6.5, fassif, kinetic from dmso stock, fasted state simulated intestinal fluid (pH6.5), 37° C.
Procedure: 2 μL of each dimethyl sulfoxide solutions containing test compounds were dispensed into wells of a 96-well plate, and 200 μL of fasted state simulated intestinal fluid (pH6.5) was added to each well. The plate was shaken at 37° C. for 20 hours. The solution was filtered through a membrane filter, and 101 μL of the filtrate was transferred to a UV plate, followed by addition of 100 μL of a solution mixture of ethanol:water=2:1 thereto. Separately, as a standard, 101 μL of a solution prepared by 2 μL of a dimethyl sulfoxide solution, 4 μL of dimethyl sulfoxide, 400 μL of ethanol, and 200 μL of water was transferred to a UV plate, and 100 μL of fasted state simulated intestinal fluid (pH6.5) was added thereto. The solubility was calculated by the following expression: Solubility=[(absorbance of test solution)−blank]/[(absorbance of standard solution)−blank]×165 μM (165 μM is the concentration of the standard solution) Composition of the fasted state simulated intestinal fluid (pH6.5)
The composition was prepared in compliance with the description in E. Galia, et al., Pharm. Res. 1998, 698.
Taurocholic acid (161 mg), L-α-phosphatidylcholine (59 mg), potassium dihydrogen phosphate (0.39 g), and potassium chloride (0.77 g) were added to about 90 mL of water. The resulting solution was adjusted to a pH of 6.5 with a sodium hydroxide aqueous solution and then diluted to a volume of 100 mL with water. The solution was filtered through a membrane filter.

[2] = system: human colon cancer cell line HCT116 cells; assay: Cell proliferation inhibitory activity, HCT116; assay type: cell-based; details: for pIC50: Homo sapiens, HCT-116, read-out: 50% proliferation inhibitory concentration (IC50 value) HCT116, HCT116, 72 hours, WST-8
Procedure: (§1) The compounds according to the present invention were measured for cancer cell proliferation inhibitory activity and human umbilical vein endothelial cell (HUVEC) proliferation inhibitory activity.
(§2) Test compounds were serially diluted with dimethyl sulfoxide and then diluted 50 times with Ca^2+- and Mg^2+-free phosphate-buffered saline, and 20 μL of each of the resulting solution was dispensed into a 96-well plate. […] Each cell suspension contains approximately 3000 cells/180 μL. These cell suspensions were dispensed to the plate containing the test compounds at 180 μL/well and incubated in a 5% carbon dioxide gas incubator at 37° C. for 72 hours. 20 μL of WST-8 (HCT116, Dojin) or WST-1 (HUVEC, Roche Diagnostics) was added to each well, and absorbance at 450 nm (reference wavelength: 650 nm) was measured.

[3] = system: human umbilical vein endothelial cells (HUVEC), VEGF-dependent proliferation; assay: VEGF-dependent HUVEC proliferation inhibition assay; assay type: cell-based; details: read-out: 50% proliferation inhibitory concentration (IC50 value) HUVEC (VEGF-dependent), 20 ng/mL of VEGF, 72 hours, WST-1
Procedure: as §1, §2

[4] = system: human umbilical vein endothelial cells (HUVEC), VEGF-independent proliferation; assay: VEGF-independent HUVEC proliferation inhibition assay; assay type: cell-based; details: read-out: 50% proliferation inhibitory concentration (IC50 value) HUVEC (VEGF-independent), vascular endothelial cell growth-promoting agent and heparin, 72 hours, WST-1
Procedure: as §1, §2

[5] = target: T1, FLT3 intracellular domain protein (Homo sapiens, UniProt P36888); assay: Flt3 enzyme inhibition test (HTRF); assay type: biochemical; details: phosphorylation of biotinylated peptide
T1 sequence (P36888 564-993 limits assumed): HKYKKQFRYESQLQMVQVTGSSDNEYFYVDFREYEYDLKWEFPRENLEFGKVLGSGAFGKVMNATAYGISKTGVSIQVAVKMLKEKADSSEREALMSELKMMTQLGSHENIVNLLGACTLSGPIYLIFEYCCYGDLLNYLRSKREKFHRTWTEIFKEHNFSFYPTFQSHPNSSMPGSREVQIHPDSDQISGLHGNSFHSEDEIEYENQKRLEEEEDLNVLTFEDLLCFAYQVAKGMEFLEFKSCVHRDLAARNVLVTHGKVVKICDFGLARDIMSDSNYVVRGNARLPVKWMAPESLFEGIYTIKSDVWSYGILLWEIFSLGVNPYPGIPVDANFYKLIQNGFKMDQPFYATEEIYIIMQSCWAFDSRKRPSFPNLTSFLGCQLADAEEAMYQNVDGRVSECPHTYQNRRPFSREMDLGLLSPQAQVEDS
Procedure: The FLT3 inhibitory activity was measured by the activity of FLT3 intracellular domain protein inhibiting for phosphorylation of a biotinylated peptide ([…]).

[6] = target: Raf-1 (Homo sapiens, UniProt P04049); assay: Raf-1 enzyme inhibition assay (MEK-1 phosphorylation, HTRF); assay type: biochemical; details: for pIC50: phosphorylation of His6-MEK-1
Procedure: (§3) The compounds according to the present invention were measured for Raf-1 and KDR enzyme inhibitory activities.
(§4) The Raf-1 inhibitory activity was measured by the activity of Raf-1 protein for inhibiting phosphorylation of MEK-1 protein having six histidine residues (His6) fused to the N-terminus thereof. […] The KDR inhibitory activity was measured by the activity of KDR intracellular domain protein for inhibiting phosphorylation of a biotinylated peptide ([…]).

[7] = target: KDR intracellular domain protein (Homo sapiens, UniProt P35968); assay: KDR enzyme inhibition assay (biotinylated peptide phosphorylation, HTRF); assay type: biochemical; details: phosphorylation of biotinylated peptide
Procedure: as §3, §4

KDR intracellular domain protein, sequence (P35968 786-1356 limits assumed): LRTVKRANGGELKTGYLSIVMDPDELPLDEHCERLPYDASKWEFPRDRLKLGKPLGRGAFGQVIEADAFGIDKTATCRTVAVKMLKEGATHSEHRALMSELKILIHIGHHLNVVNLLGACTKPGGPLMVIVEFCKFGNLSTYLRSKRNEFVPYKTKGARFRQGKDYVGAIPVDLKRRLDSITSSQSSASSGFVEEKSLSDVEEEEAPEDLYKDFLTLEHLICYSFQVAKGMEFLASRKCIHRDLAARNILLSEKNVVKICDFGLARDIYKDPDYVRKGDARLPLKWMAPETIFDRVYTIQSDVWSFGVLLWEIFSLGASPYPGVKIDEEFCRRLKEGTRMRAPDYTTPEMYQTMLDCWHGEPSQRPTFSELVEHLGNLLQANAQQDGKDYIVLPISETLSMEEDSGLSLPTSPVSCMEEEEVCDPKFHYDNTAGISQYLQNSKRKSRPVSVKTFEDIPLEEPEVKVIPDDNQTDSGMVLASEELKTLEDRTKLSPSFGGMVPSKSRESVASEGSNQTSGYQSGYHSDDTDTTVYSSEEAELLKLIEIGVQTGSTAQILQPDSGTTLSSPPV
Raf-1, sequence (P04049 whole entry): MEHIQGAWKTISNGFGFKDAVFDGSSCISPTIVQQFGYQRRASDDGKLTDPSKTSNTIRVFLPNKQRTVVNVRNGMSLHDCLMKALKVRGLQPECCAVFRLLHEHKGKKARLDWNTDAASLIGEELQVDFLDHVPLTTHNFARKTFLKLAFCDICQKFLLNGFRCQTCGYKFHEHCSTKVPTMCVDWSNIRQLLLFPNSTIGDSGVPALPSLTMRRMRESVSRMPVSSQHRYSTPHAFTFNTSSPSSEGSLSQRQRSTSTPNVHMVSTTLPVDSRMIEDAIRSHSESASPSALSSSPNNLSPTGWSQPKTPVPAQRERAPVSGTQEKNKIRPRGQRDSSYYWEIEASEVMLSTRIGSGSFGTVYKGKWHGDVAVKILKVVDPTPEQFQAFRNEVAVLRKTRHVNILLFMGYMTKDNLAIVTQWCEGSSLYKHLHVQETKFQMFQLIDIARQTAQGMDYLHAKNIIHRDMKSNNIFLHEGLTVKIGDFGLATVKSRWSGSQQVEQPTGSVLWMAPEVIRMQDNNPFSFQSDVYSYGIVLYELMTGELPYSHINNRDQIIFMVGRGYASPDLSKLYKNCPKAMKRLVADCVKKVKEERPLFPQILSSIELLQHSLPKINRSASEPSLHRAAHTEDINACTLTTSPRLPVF

O=C(Nc1ccc(Oc2ccnc3[nH]ncc23)cc1)Nc1ccc(CCCCF)c(C(F)(F)F)c1 [Compound 35, 1-[4-(4-Fluorobutyl)-3-(trifluoromethyl)phenyl]-3-[4-(1H-pyrazolo[3,4-b]pyridin-4-yloxy)phenyl]urea]
solubility at 20 h [1]: 18 µg/mL (≈ 36.9 µM)

COCCOc1cccc2cc(NC(=O)Nc3ccc(Oc4ccnc5[nH]ccc45)cc3)ccc12 [Compound 3, 1-[5-(2-Methoxyethoxy)naphthalen-2-yl]-3-[4-(1H-pyrrolo[2,3-b]pyridin-4-yloxy)phenyl]urea]
pIC50 [2]: 5.47 | pIC50 [3]: 8.43 | pIC50 [4]: 5.36 | pIC50 [5]: 7.82

O=C(Nc1ccc(Oc2ccnc3[nH]ccc23)cc1)Nc1ccc2c(CCCF)cccc2c1 [Compound 46, 1-[5-(3-Fluoropropyl)naphthalen-2-yl]-3-[4-(1H-pyrrolo[2,3-b]pyridin-4-yloxy)phenyl]urea]
pIC50 [2]: 5.48 | pIC50 [3]: 7.82 | pIC50 [4]: 5.39

O=C(Nc1ccc(Oc2ccnc3[nH]ccc23)cc1)Nc1ccc2c(CCF)cccc2c1 [Compound 42, 1-[5-(2-Fluoroethyl)naphthalen-2-yl]-3-[4-(1H-pyrrolo[2,3-b]pyridin-4-yloxy)phenyl]urea]
pIC50 [2]: 5.36 | pIC50 [3]: 7.30 | pIC50 [4]: 5.23 | pIC50 [5]: 8.22

O=C(Nc1ccc(Oc2ccnc3[nH]ccc23)cc1)Nc1ccc(OCC(F)(F)F)c(C(F)(F)F)c1 [Compound 13, 1-[4-(1H-Pyrrolo[2,3-b]pyridin-4-yloxy)phenyl]-3-[4-(2,2,2-trifluoro-ethoxy)-3-(trifluoromethyl)phenyl]urea]
pIC50 [2]: 5.51 | pIC50 [3]: 8.13 | pIC50 [4]: 5.92 | solubility at 20 h [1]: 15 µg/mL (≈ 29.4 µM)

O=C(Nc1ccc(Oc2ccnc3[nH]ccc23)cc1)Nc1cc(OC2CCOCC2)cc(C(F)(F)F)c1 [Compound 9, 1-[4-(1H-Pyrrolo[2,3-b]pyridin-4-yloxy)phenyl]-3-[3-(tetrahydro-pyran-4-yloxy)-5-(trifluoromethyl)phenyl]urea]
pIC50 [2]: 5.77 | pIC50 [3]: 7.52 | pIC50 [4]: 5.74 | pIC50 [6]: 7.19 | pIC50 [7]: 8.66

O=C(Nc1ccc(Oc2ccnc3[nH]ccc23)cc1)Nc1cc(C(F)(F)F)cc(C(F)(F)F)c1 [Compound 50, 1-[3,5-Bis(trifluoromethyl)phenyl]-3-[4-(1H-pyrrolo[2,3-b]pyridin-4-yloxy)phenyl]urea]
solubility at 20 h [1]: 35 µg/mL (≈ 72.9 µM)

O=C(Nc1ccc(F)cc1)Nc1ccc(Oc2ccnc3[nH]ccc23)cc1 [Compound B, reference compound]
proliferation inhibitory activity for HCT116 cells (in words) [2]: does not have proliferation inhibitory activity | Raf-1 inhibitory activity (in words) [6]: does not have Raf-1 inhibitory activity

O=C(Nc1ccc(Oc2ccnc3[nH]ccc23)cc1)Nc1cc(CCCC(F)F)cc(C(F)(F)F)c1 [Compound 41, 1-[3-(4,4-Difluorobutyl)-5-(trifluoromethyl)phenyl]-3-[4-(1H-pyrrolo[2,3-b]pyridin-4-yloxy)phenyl]urea]
pIC50 [6]: 7.09 | pIC50 [7]: 8.46

O=C(Nc1ccc(Oc2ccnc3[nH]ncc23)cc1)Nc1cc(CCF)cc(C(F)(F)F)c1 [Compound 24, 1-[3-(2-Fluoroethyl)-5-(trifluoromethyl)phenyl]-3-[4-(1H-pyrazolo[3,4-b]pyridin-4-yloxy)phenyl]urea]
solubility at 20 h [1]: 19 µg/mL (≈ 41.4 µM) | pIC50 [5]: 7.74

O=C(Nc1ccc(Oc2ccnc3[nH]ccc23)cc1)Nc1cc(CCC(F)F)cc(C(F)(F)F)c1 [Compound 32, 1-[3-(3,3-Difluoropropyl)-5-(trifluoromethyl)phenyl]-3-[4-(1H-pyrrolo[2,3-b]pyridin-4-yloxy)phenyl]urea]
pIC50 [2]: 5.82 | pIC50 [3]: 7.82 | pIC50 [4]: 5.92 | pIC50 [6]: 7.21 | pIC50 [7]: 9.02

O=C(Nc1ccc(Oc2ccnc3[nH]ccc23)cc1)Nc1ccc(OC(F)(F)F)c(C(F)(F)F)c1 [Compound 20, 1-[4-(1H-Pyrrolo[2,3-b]pyridin-4-yloxy)phenyl]-3-[4-trifluoromethoxy-3-(trifluoromethyl)phenyl]urea]
solubility at 20 h [1]: 25 µg/mL (≈ 50.4 µM)

O=C(Nc1ccc(Oc2ccnc3[nH]ccc23)cc1)Nc1ccc(CF)c(C(F)(F)F)c1 [Compound 51, 1-(4-fluoromethyl-3-trifluoromethyl-phenyl)-3-[4-(1H-pyrrolo[2,3-b]pyridin-4-yloxy)phenyl]urea]
pIC50 [2]: 6.00 | pIC50 [3]: 8.40 | pIC50 [4]: 6.10 | pIC50 [6]: 7.46 | pIC50 [7]: 9.46 | solubility at 20 h [1]: 15 µg/mL (≈ 33.8 µM) | pIC50 [5]: 7.80

CCc1ccc(NC(=O)Nc2ccc(Oc3ccnc4[nH]ccc34)cc2)cc1C(F)(F)F [Compound 55, 1-(4-Ethyl-3-trifluoromethyl-phenyl)-3-[4-(1H-pyrrolo[2,3-b]pyridin-4-yloxy)phenyl]urea]
pIC50 [2]: 5.82 | pIC50 [3]: 8.14 | pIC50 [4]: 5.85 | pIC50 [6]: 7.33 | pIC50 [7]: 8.07

O=C(Nc1ccc(Oc2ccnc3[nH]ccc23)cc1)Nc1ccc(CCCCF)c(C(F)(F)F)c1 [Compound 34, 1-[4-(4-Fluorobutyl)-3-(trifluoromethyl)phenyl]-3-[4-(1H-pyrrolo[2,3-b]pyridin-4-yloxy)phenyl]urea]
solubility at 20 h [1]: 21 µg/mL (≈ 43.2 µM)

O=C(Nc1ccc(Oc2ccnc3[nH]ncc23)cc1)Nc1ccc(CCF)c(C(F)(F)F)c1 [Compound 23, 1-[4-(2-Fluoroethyl)-3-(trifluoromethyl)phenyl]-3-[4-(1H-pyrazolo[3,4-b]pyridin-4-yloxy)phenyl]urea]
pIC50 [6]: 7.72 | pIC50 [7]: 8.43 | pIC50 [5]: 8.16

O=C(Nc1ccc(Oc2ccnc3[nH]ccc23)cc1)Nc1cc(CCCF)cc(C(F)(F)F)c1 [Compound 29, 1-[3-(3-Fluoropropyl)-5-(trifluoromethyl)phenyl]-3-[4-(1H-pyrrolo[2,3-b]pyridin-4-yloxy)phenyl]urea]
pIC50 [2]: 5.80 | pIC50 [3]: 8.10 | pIC50 [4]: 5.96 | pIC50 [6]: 7.09 | pIC50 [7]: 8.04

C=Cc1ccc(NC(=O)Nc2ccc(Oc3ccnc4[nH]ccc34)cc2)cc1C(F)(F)F [Compound 56, 1-[4-(1H-Pyrrolo[2,3-b]pyridin-4-yloxy)phenyl]-3-(3-trifluoromethyl-4-vinyl-phenyl)urea]
pIC50 [2]: 5.66 | pIC50 [3]: 7.92 | pIC50 [4]: 5.51 | pIC50 [6]: 7.15 | pIC50 [7]: 7.80

O=C(Nc1ccc(Oc2ccnc3[nH]ccc23)cc1)Nc1cc(CCCCF)cc(C(F)(F)F)c1 [Compound 38, 1-[3-(4-Fluorobutyl)-5-(trifluoromethyl)phenyl]-3-[4-(1H-pyrrolo[2,3-b]pyridin-4-yloxy)phenyl]urea]
pIC50 [6]: 7.19 | pIC50 [7]: 8.89
